Test system: MV-4-11 cells
Test: Gene expression microarray analysis (Affymetrix PrimeView) and GSEA
Type: cell-based, human
Set-up: RFU PODN (11730768_x_at) / Fold change /veh PODN (11730768_x_at) / RFU LINC00158 (11744669_a_at) / Fold change /veh LINC00158 (11744669_a_at) / RFU DUSP10 (11751237_a_at) / Fold change /veh DUSP10 (11751237_a_at) / RFU ID3 (11757404_x_at) / Fold change /veh ID3 (11757404_x_at) / RFU PLEKHG5 (11737974_s_at) / Fold change /veh PLEKHG5 (11737974_s_at) / RFU LRRC4B (11730491_at) / Fold change /veh LRRC4B (11730491_at) / RFU GIMAP4 (11747438_a_at) / Fold change /veh GIMAP4 (11747438_a_at) / RFU KRT8 (11758183_x_at) / Fold change /veh KRT8 (11758183_x_at) / RFU CNN1 (11734310_a_at) / Fold change /veh CNN1 (11734310_a_at) / RFU VPS37D (11726825_at) / Fold change /veh VPS37D (11726825_at) / RFU C10orf10 (11716522_x_at) / Fold change /veh C10orf10 (11716522_x_at) / RFU KIR2DL2 /// KIR2DL4 /// KIR2DL5A /// KIR2DL5B /// KIR2DS1 /// KIR2DS2 /// KIR2DS3 /// KIR2DS4 /// KIR3DL3 /// KIR3DL3 /// KIR3DS1 (11738374_at) / Fold change /veh KIR2DL2 /// KIR2DL4 /// KIR2DL5A /// KIR2DL5B /// KIR2DS1 /// KIR2DS2 /// KIR2DS3 /// KIR2DS4 /// KIR3DL3 /// KIR3DL3 /// KIR3DS1 (11738374_at) / RFU C1QL1 (11718748_at) / Fold change /veh C1QL1 (11718748_at) / RFU TMPRSS4 (11747572_a_at) / Fold change /veh TMPRSS4 (11747572_a_at) / RFU HAMP (11756126_x_at) / Fold change /veh HAMP (11756126_x_at) / RFU RNFT2 (11725882_a_at) / Fold change /veh RNFT2 (11725882_a_at) / RFU NR4A2 (11747474_a_at) / Fold change /veh NR4A2 (11747474_a_at) / RFU ABCC12 (11746883_a_at) / Fold change /veh ABCC12 (11746883_a_at) / RFU TMEM136 (11760407_x_at) / Fold change /veh TMEM136 (11760407_x_at) / RFU CLDN22 /// WWC2 (11732394_at) / Fold change /veh CLDN22 /// WWC2 (11732394_at) / RFU HLA-DPB1 (11760878_x_at) / Fold change /veh HLA-DPB1 (11760878_x_at) / RFU SPINT1 (11716480_a_at) / Fold change /veh SPINT1 (11716480_a_at) / RFU GAP43 (11754022_s_at) / Fold change /veh GAP43 (11754022_s_at) / RFU A4GNT (11735810_at) / Fold change /veh A4GNT (11735810_at) / RFU PRB3 (11715151_x_at) / Fold change /veh PRB3 (11715151_x_at) / RFU TUBB4B (11761932_at) / Fold change /veh TUBB4B (11761932_at) / RFU CAPN14 (11732068_a_at) / Fold change /veh CAPN14 (11732068_a_at) / RFU TMCC2 (11721928_a_at) / Fold change /veh TMCC2 (11721928_a_at) / RFU IRGQ (11745062_a_at) / Fold change /veh IRGQ (11745062_a_at) / RFU FAM174B (11720279_a_at) / Fold change /veh FAM174B (11720279_a_at) / RFU TMPRSS4 (11748680_a_at) / Fold change /veh TMPRSS4 (11748680_a_at) / RFU FAM212B (11763350_a_at) / Fold change /veh FAM212B (11763350_a_at) / RFU PLEKHG5 (11743358_a_at) / Fold change /veh PLEKHG5 (11743358_a_at) / RFU ZSCAN30 (11745921_a_at) / Fold change /veh ZSCAN30 (11745921_a_at) / RFU CMKLR1 (11741424_a_at) / Fold change /veh CMKLR1 (11741424_a_at) / RFU LOC101060620 /// MAPK8IP1 (11723275_at) / Fold change /veh LOC101060620 /// MAPK8IP1 (11723275_at) / RFU SPTSSB (11747773_x_at) / Fold change /veh SPTSSB (11747773_x_at) / RFU PRSS12 (11739890_at) / Fold change /veh PRSS12 (11739890_at) / RFU BIN1 (11741810_x_at) / Fold change /veh BIN1 (11741810_x_at) / RFU WNT11 (11732464_a_at) / Fold change /veh WNT11 (11732464_a_at) / RFU C10orf10 (11716521_a_at) / Fold change /veh C10orf10 (11716521_a_at) / RFU C5orf56 (11738089_at) / Fold change /veh C5orf56 (11738089_at) / RFU CYB561 (11721691_x_at) / Fold change /veh CYB561 (11721691_x_at) / RFU ANKRD19P (11752326_a_at) / Fold change /veh ANKRD19P (11752326_a_at) / RFU OR2T12 /// OR2T33 /// OR2T8 (11738714_s_at) / Fold change /veh OR2T12 /// OR2T33 /// OR2T8 (11738714_s_at) / RFU VCAN (11748164_a_at) / Fold change /veh VCAN (11748164_a_at) / RFU JSRP1 (11732532_at) / Fold change /veh JSRP1 (11732532_at) / RFU KRTAP10-11 (11738290_x_at) / Fold change /veh KRTAP10-11 (11738290_x_at) / RFU MYO3A (11730013_a_at) / Fold change /veh MYO3A (11730013_a_at) / RFU EBF3 (11725865_a_at) / Fold change /veh EBF3 (11725865_a_at) / RFU CAMK2N1 (11719241_x_at) / Fold change /veh CAMK2N1 (11719241_x_at) / RFU C5orf56 (11738088_a_at) / Fold change /veh C5orf56 (11738088_a_at) / RFU OLFML3 (11715873_a_at) / Fold change /veh OLFML3 (11715873_a_at) / RFU LOC100653217 /// NTM (11731650_a_at) / Fold change /veh LOC100653217 /// NTM (11731650_a_at) / RFU MAPK11 (11762145_a_at) / Fold change /veh MAPK11 (11762145_a_at) / RFU FIZ1 (11724087_x_at) / Fold change /veh FIZ1 (11724087_x_at) / RFU OASL (11726364_x_at) / Fold change /veh OASL (11726364_x_at) / RFU SOX15 (11748057_x_at) / Fold change /veh SOX15 (11748057_x_at) / RFU CD79A (11719716_a_at) / Fold change /veh CD79A (11719716_a_at) / RFU HIST1H1D (11736915_at) / Fold change /veh HIST1H1D (11736915_at) / RFU CASKIN2 (11723855_a_at) / Fold change /veh CASKIN2 (11723855_a_at) / RFU LOC730098 (11760151_x_at) / Fold change /veh LOC730098 (11760151_x_at) / RFU OR4N2 (11742367_at) / Fold change /veh OR4N2 (11742367_at) / RFU PRRT2 (11749266_a_at) / Fold change /veh PRRT2 (11749266_a_at) / RFU SNX32 (11753110_a_at) / Fold change /veh SNX32 (11753110_a_at) / RFU CDHR5 (11726645_a_at) / Fold change /veh CDHR5 (11726645_a_at) / RFU RCAN1 (11760418_a_at) / Fold change /veh RCAN1 (11760418_a_at) / RFU FAM167A (11723789_a_at) / Fold change /veh FAM167A (11723789_a_at) / RFU FAM26E (11764081_at) / Fold change /veh FAM26E (11764081_at) / RFU ISYNA1 (11749810_s_at) / Fold change /veh ISYNA1 (11749810_s_at) / RFU ACY1 (11761880_at) / Fold change /veh ACY1 (11761880_at) / RFU 11764098_at / Fold change /veh 11764098_at / RFU SAMD14 (11745864_x_at) / Fold change /veh SAMD14 (11745864_x_at) / RFU NPB (11741838_a_at) / Fold change /veh NPB (11741838_a_at) / RFU TMPRSS6 (11731388_a_at) / Fold change /veh TMPRSS6 (11731388_a_at) / RFU KRTAP10-2 (11738614_at) / Fold change /veh KRTAP10-2 (11738614_at) / RFU ARHGAP8 /// PRR5-ARHGAP8 (11727945_x_at) / Fold change /veh ARHGAP8 /// PRR5-ARHGAP8 (11727945_x_at) / RFU KRTAP5-7 /// NADSYN1 (11734609_at) / Fold change /veh KRTAP5-7 /// NADSYN1 (11734609_at) / RFU RASL12 (11751679_a_at) / Fold change /veh RASL12 (11751679_a_at) / RFU CDKN2B (11736163_a_at) / Fold change /veh CDKN2B (11736163_a_at) / RFU PRF1 (11729649_at) / Fold change /veh PRF1 (11729649_at) / RFU, ZNF638 /// ZNF638-IT1 / Fold change vs veh, ZNF638 /// ZNF638-IT1 / RFU, PANK3 / Fold change vs veh, PANK3 / RFU, SH3YL1 / Fold change vs veh, SH3YL1 / RFU, ZEB2 / Fold change vs veh, ZEB2 / RFU, NRIP1 / Fold change vs veh, NRIP1 / RFU, PTTG1IP / Fold change vs veh, PTTG1IP / RFU, CAPN2 / Fold change vs veh, CAPN2 / RFU, MED14 / Fold change vs veh, MED14 / RFU, SNORA58 / Fold change vs veh, SNORA58 / RFU, C1orf63 / Fold change vs veh, C1orf63 / RFU, LRRFIP1 / Fold change vs veh, LRRFIP1 / RFU, NDUFAF7 / Fold change vs veh, NDUFAF7 / RFU, SLC12A2 / Fold change vs veh, SLC12A2 / RFU, IBTK / Fold change vs veh, IBTK / RFU, ESF1 / Fold change vs veh, ESF1 / Fold change vs veh, TMEM50B / RFU, TAOK1 / Fold change vs veh, TAOK1 / RFU, ACBD3 / Fold change vs veh, ACBD3 / RFU, TMA16 / Fold change vs veh, TMA16 / RFU, RWDD3 / Fold change vs veh, RWDD3 / RFU, BCAT1 / Fold change vs veh, BCAT1 / RFU, EDEM3 / Fold change vs veh, EDEM3 / RFU, TMEM33 / Fold change vs veh, TMEM33 / RFU, WDR75 / Fold change vs veh, WDR75 / RFU, AHCTF1 / Fold change vs veh, AHCTF1 / RFU, TFRC / Fold change vs veh, TFRC / RFU, ZDHHC17 / Fold change vs veh, ZDHHC17 / RFU, NOM1 / Fold change vs veh, NOM1 / RFU, ARL8B / Fold change vs veh, ARL8B / RFU, ZBTB11 / Fold change vs veh, ZBTB11 / RFU, TAMM41 / Fold change vs veh, TAMM41 / RFU, KIAA1704 /// LOC100996395 / Fold change vs veh, KIAA1704 /// LOC100996395 / RFU, ING1 / Fold change vs veh, ING1 / RFU, TRMT61B / Fold change vs veh, TRMT61B / RFU, FUBP3 / Fold change vs veh, FUBP3 / RFU, TP53 / Fold change vs veh, TP53 / RFU, TNKS2 / Fold change vs veh, TNKS2 / RFU, ZFP14 / Fold change vs veh, ZFP14 / RFU, ACTR2 / Fold change vs veh, ACTR2 / RFU, PPP3R1 / Fold change vs veh, PPP3R1 / RFU, PIK3R1 / Fold change vs veh, PIK3R1 / RFU, HNRNPA1 / Fold change vs veh, HNRNPA1 / RFU, RNF170 / Fold change vs veh, RNF170 / RFU, ZNF28 / Fold change vs veh, ZNF28 / RFU, RNGTT / Fold change vs veh, RNGTT / RFU, OGT / Fold change vs veh, OGT / RFU, BRD1 / Fold change vs veh, BRD1 / RFU, MARS / Fold change vs veh, MARS / RFU, ZNF655 / Fold change vs veh, ZNF655 / RFU, FAHD1 / Fold change vs veh, FAHD1 / RFU, BDP1 / Fold change vs veh, BDP1 / RFU, LRRCC1 / Fold change vs veh, LRRCC1 / RFU, ARID1A / Fold change vs veh, ARID1A / RFU, ZNF146 / Fold change vs veh, ZNF146 / RFU, ZNF330 / Fold change vs veh, ZNF330 / RFU, GPN3 / Fold change vs veh, GPN3 / RFU, C9orf123 / Fold change vs veh, C9orf123 / RFU, N4BP2L2 / Fold change vs veh, N4BP2L2 / RFU, ARFIP1 / Fold change vs veh, ARFIP1 / RFU, FAM179B / Fold change vs veh, FAM179B / RFU, BCL10 / Fold change vs veh, BCL10 / RFU, UHRF1BP1L / Fold change vs veh, UHRF1BP1L / RFU, BET1 / Fold change vs veh, BET1 / RFU, CNOT2 / Fold change vs veh, CNOT2 / RFU, ZNF268 / Fold change vs veh, ZNF268 / Fold change vs veh, ZNF507 / RFU, DGCR2 / Fold change vs veh, DGCR2 / RFU, WDSUB1 / Fold change vs veh, WDSUB1 / Fold change vs veh, HSP90B1 /// MIR3652 / RFU, ADSS / Fold change vs veh, ADSS / RFU, GK / Fold change vs veh, GK / RFU, ZNF148 / Fold change vs veh, ZNF148 / RFU, TAF9 / Fold change vs veh, TAF9 / RFU, SLC1A5 / Fold change vs veh, SLC1A5 / RFU, SLMO2 / Fold change vs veh, SLMO2 / RFU, ABCC4 / Fold change vs veh, ABCC4 / RFU, LOC101060439 /// RAP1B / Fold change vs veh, LOC101060439 /// RAP1B / RFU, RFX7 / Fold change vs veh, RFX7 / RFU, GTPBP10 / Fold change vs veh, GTPBP10 / RFU, CNEP1R1 / Fold change vs veh, CNEP1R1 / RFU, BIVM-ERCC5 /// ERCC5 / Fold change vs veh, BIVM-ERCC5 /// ERCC5 / RFU, ILF3 / Fold change vs veh, ILF3 / RFU 11762660_at / Fold change /veh 11762660_at / RFU VCAN (11757783_s_at) / Fold change /veh VCAN (11757783_s_at) / RFU DDX43 (11728927_at) / Fold change /veh DDX43 (11728927_at) / RFU KRT8 (11758188_x_at) / Fold change /veh KRT8 (11758188_x_at) / RFU NKD1 (11759106_at) / Fold change /veh NKD1 (11759106_at) / RFU SRD5A1 (11742802_a_at) / Fold change /veh SRD5A1 (11742802_a_at) / RFU TPSAB1 /// TPSB2 (11721975_s_at) / Fold change /veh TPSAB1 /// TPSB2 (11721975_s_at) / RFU GSTM3 (11746129_a_at) / Fold change /veh GSTM3 (11746129_a_at) / RFU IL23R (11737362_x_at) / Fold change /veh IL23R (11737362_x_at) / RFU TMEM51 (11727254_a_at) / Fold change /veh TMEM51 (11727254_a_at) / RFU PIWIL2 (11732686_x_at) / Fold change /veh PIWIL2 (11732686_x_at) / RFU ORM1 (11744905_x_at) / Fold change /veh ORM1 (11744905_x_at) / RFU CCDC152 (11743942_at) / Fold change /veh CCDC152 (11743942_at) / RFU ECM1 (11717891_a_at) / Fold change /veh ECM1 (11717891_a_at) / RFU IL23R (11748794_a_at) / Fold change /veh IL23R (11748794_a_at) / RFU TNFAIP8L3 (11732012_x_at) / Fold change /veh TNFAIP8L3 (11732012_x_at) / RFU MBOAT4 (11741988_at) / Fold change /veh MBOAT4 (11741988_at) / RFU 11764193_at / Fold change /veh 11764193_at / RFU TMEM53 (11763286_at) / Fold change /veh TMEM53 (11763286_at) / RFU MAGEB2 (11727129_at) / Fold change /veh MAGEB2 (11727129_at) / RFU TMEM200A (11744735_a_at) / Fold change /veh TMEM200A (11744735_a_at) / RFU CCDC152 (11751479_a_at) / Fold change /veh CCDC152 (11751479_a_at) / RFU FAM211A (11726209_a_at) / Fold change /veh FAM211A (11726209_a_at) / RFU RGS16 (11746705_a_at) / Fold change /veh RGS16 (11746705_a_at) / RFU VCAN (11755009_s_at) / Fold change /veh VCAN (11755009_s_at) / RFU RHOB (11743442_s_at) / Fold change /veh RHOB (11743442_s_at) / RFU RGS16 (11720943_a_at) / Fold change /veh RGS16 (11720943_a_at) / RFU RGS16 (11720944_at) / Fold change /veh RGS16 (11720944_at) / RFU, VPS4B / Fold change vs veh, VPS4B / RFU, CREB1 / Fold change vs veh, CREB1 / RFU, DNAJC13 / Fold change vs veh, DNAJC13 / RFU, GNAQ / Fold change vs veh, GNAQ / RFU, CDK5R1 / Fold change vs veh, CDK5R1 / RFU, ZRANB3 / Fold change vs veh, ZRANB3 / RFU, CUL4A / Fold change vs veh, CUL4A / RFU, CCNY / Fold change vs veh, CCNY / RFU, UFL1 / Fold change vs veh, UFL1 / RFU, COG3 / Fold change vs veh, COG3 / RFU, DIAPH2 / Fold change vs veh, DIAPH2 / RFU, SKA2 / Fold change vs veh, SKA2 / RFU, AFF3 / Fold change vs veh, AFF3 / RFU, LMF1 / Fold change vs veh, LMF1 / RFU, IPO11 / Fold change vs veh, IPO11 / RFU, DFFB / Fold change vs veh, DFFB / RFU, FOXP1 / Fold change vs veh, FOXP1 / RFU, CARD8 / Fold change vs veh, CARD8 / RFU, STRN3 / Fold change vs veh, STRN3 / RFU, ADK / Fold change vs veh, ADK / RFU, RASSF2 / Fold change vs veh, RASSF2 / RFU, WIPF1 / Fold change vs veh, WIPF1 / RFU, LARP1B / Fold change vs veh, LARP1B / RFU, RASA1 / Fold change vs veh, RASA1 / RFU, RB1 / Fold change vs veh, RB1 / RFU, PPFIA1 / Fold change vs veh, PPFIA1 / RFU, MAT2A / Fold change vs veh, MAT2A / RFU, CCT5 / Fold change vs veh, CCT5 / RFU, WDR92 / Fold change vs veh, WDR92 / RFU, CUX1 / Fold change vs veh, CUX1 / RFU, TTC7A / Fold change vs veh, TTC7A / RFU, TMEM135 / Fold change vs veh, TMEM135 / RFU, DEPTOR / Fold change vs veh, DEPTOR / RFU, CPM / Fold change vs veh, CPM / RFU, DNAJB6 / Fold change vs veh, DNAJB6 / RFU, CACNA2D3 / Fold change vs veh, CACNA2D3 / RFU, DTX4 / Fold change vs veh, DTX4 / RFU, TFCP2 / Fold change vs veh, TFCP2 / RFU, GMCL1 /// GMCL1P1 / Fold change vs veh, GMCL1 /// GMCL1P1 / RFU, AEBP2 / Fold change vs veh, AEBP2 / RFU, SNHG1 /// SNORD22 /// SNORD25 /// SNORD26 /// SNORD27 /// SNORD28 /// SNORD29 /// SNORD31 / Fold change vs veh, SNHG1 /// SNORD22 /// SNORD25 /// SNORD26 /// SNORD27 /// SNORD28 /// SNORD29 /// SNORD31 / Fold change (Aza/veh), C12orf56 (ProbeSet 11735607_a_at) / Fold change (ACY-1035/veh), C12orf56 (ProbeSet 11735607_a_at) / Fold change (Aza/veh), FGFR1OP (ProbeSet 11751329_s_at) / Fold change (ACY-1035/veh), FGFR1OP (ProbeSet 11751329_s_at) / Fold change (Aza/veh), VPS36 (ProbeSet 11739960_a_at) / Fold change (ACY-1035/veh), VPS36 (ProbeSet 11739960_a_at) / RFU SYPL1 (11715823_x_at) / Fold change /veh SYPL1 (11715823_x_at) / RFU IGFBP7 (11715501_s_at) / Fold change /veh IGFBP7 (11715501_s_at) / RFU REEP3 (11722064_at) / Fold change /veh REEP3 (11722064_at) / RFU IGLL1 (11728026_x_at) / Fold change /veh IGLL1 (11728026_x_at): dose or concentration left out as unconfirmed
Settings: ProbeSet 11725217_a_at; LIST B

Nc1ncn([C@@H]2O[C@H](CO)[C@@H](O)[C@H]2O)c(=O)n1 [azacitidine]
RFU, WDSUB1: 50.65 RFU
